A word on the IC50: it is the concentration needed to halve the response being measured.

From ChEMBL document CHEMBL5346906, “Discovery of novel tranylcypromine-based derivatives as LSD1 inhibitors for gastric cancer treatment” (Eur J Med Chem, 2023) come the findings set out here.

Active and inactive are the calls of the source. The rule behind the calls is not given here.

The target in assay [1] is T1, Lysine-specific histone demethylase 1A (Homo sapiens, UniProt O60341). The experiment in a line: Inhibition of recombinant LSD1 (unknown origin) preincubated for 10 mins in presence of H3K4Me2 measured after 30 mins by measuring fluorescence intensity by fluorescence based microplate reader.
The subject of assay [2] is MGC-803. The experiment in a line: Induction of mitochondrial membrane potential depolarization in human MGC-803 assessed as late apoptotic cells measured at 24 micromol/L for 20 mins by JC-1 staining based flow cytometric analysis (reference value: 94.98%). The format is functional. Particulars: dose 24 µmol/L, at 24 µM. (In flow cytometry, cells or beads pass a laser one at a time.)

Assay [3] has as its system MGC-803. The experiment in a line: Induction of cell differentiation in human MGC-803 cells assessed as increase in CD86 level at 16 micromol/L incubated for 48 hrs by flow cytometric analysis (reference value: 60%). Particulars: dose 16 µmol/L, at 16 µM. The class given is functional.
Assay [4] deals with T1, Lysine-specific histone demethylase 1A. The experiment in a line: Inhibition of LSD1 in human MGC-803 cells assessed as increase in mono methylation of H3K4. The class given is cell-based. The note with it: dose 0-24 µmol/L.
In assay [5] the target is T2, Amine oxidase [flavin-containing] B (Homo sapiens, UniProt P27338).
T2 sequence (P27338 whole entry): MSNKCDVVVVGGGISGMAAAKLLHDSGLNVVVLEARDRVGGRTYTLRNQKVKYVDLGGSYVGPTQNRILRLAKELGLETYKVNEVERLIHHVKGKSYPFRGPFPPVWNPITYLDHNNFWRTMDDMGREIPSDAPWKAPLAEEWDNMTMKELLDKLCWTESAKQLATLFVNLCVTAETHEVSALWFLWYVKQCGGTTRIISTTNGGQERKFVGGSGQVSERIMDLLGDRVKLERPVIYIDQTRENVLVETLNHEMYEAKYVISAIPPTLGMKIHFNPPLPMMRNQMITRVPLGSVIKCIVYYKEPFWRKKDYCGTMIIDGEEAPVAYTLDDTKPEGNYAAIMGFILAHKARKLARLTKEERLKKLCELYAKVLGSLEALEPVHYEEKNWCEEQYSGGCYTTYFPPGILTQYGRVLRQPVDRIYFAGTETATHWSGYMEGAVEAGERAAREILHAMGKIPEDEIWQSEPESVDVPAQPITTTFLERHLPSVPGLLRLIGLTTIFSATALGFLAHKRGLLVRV
The experiment in a line: Inhibition of MAO-B (unknown origin) measured by MAO-GloTM method.

Assay [6] concerns the target T3, Amine oxidase [flavin-containing] A (Homo sapiens, UniProt P21397).
T3 sequence (P21397 whole entry): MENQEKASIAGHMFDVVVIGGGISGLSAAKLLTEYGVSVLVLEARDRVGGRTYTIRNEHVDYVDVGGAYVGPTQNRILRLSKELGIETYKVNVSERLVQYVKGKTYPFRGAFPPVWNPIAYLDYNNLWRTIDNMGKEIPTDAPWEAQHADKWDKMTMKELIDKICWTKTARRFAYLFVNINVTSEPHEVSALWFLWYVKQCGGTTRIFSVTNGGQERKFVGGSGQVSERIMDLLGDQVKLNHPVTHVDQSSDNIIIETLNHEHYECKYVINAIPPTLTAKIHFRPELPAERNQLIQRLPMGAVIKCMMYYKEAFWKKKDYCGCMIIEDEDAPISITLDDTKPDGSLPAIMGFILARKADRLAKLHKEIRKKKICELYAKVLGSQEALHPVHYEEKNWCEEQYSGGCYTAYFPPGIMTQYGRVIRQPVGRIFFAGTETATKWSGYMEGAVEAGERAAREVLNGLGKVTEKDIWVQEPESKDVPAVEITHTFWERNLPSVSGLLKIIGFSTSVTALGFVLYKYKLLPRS
The experiment in a line: Inhibition of MAO-A (unknown origin) measured by MAO-GloTM method.

Assay [7] concerns MGC-803. The experiment in a line: Induction of mitochondrial membrane potential depolarization in human MGC-803 assessed as viable cells measured at 16 micromol/L for 20 mins by JC-1 staining based flow cytometric analysis (reference value: 0.40%). The note with it: MGC-803, 20 min, dose 16 µmol/L, read-out: Activity. The format is functional.
Assay [8] deals with MGC-803. The experiment in a line: Induction of apoptosis in human MGC-803 cells assessed as early apoptotic cells at 16 micromol/L for 48 hrs by annexinV-FITC/PI staining based flow cytometric analysis (reference value: 2.92%). The format is functional. The note with it: dose 16 µmol/L, at 16 µM.
The test system of assay [9] is MGC-803. The experiment in a line: Induction of apoptosis in human MGC-803 cells assessed as decrease in capase3 expression at 8 to 24 micromol/L. The class given is functional, cell-based. Particulars: dose 8-24 µmol/L.
The subject of assay [10] is MGC-803. The experiment in a line: Induction of apoptosis in human MGC-803 cells assessed as late apoptotic cells at 16 micromol/L for 48 hrs by annexinV-FITC/PI staining based flow cytometric analysis (reference value: 1.32%). The class given is functional. Particulars: dose 16 µmol/L, at 16 µM.
The subject of assay [11] is MGC-803. The experiment in a line: Induction of apoptosis in human MGC-803 cells assessed as decrease in capase9 expression at 8 to 24 micromol/L. The class given is functional, cell-based. The note with it: dose 8-24 µmol/L.
The test system of assay [12] is MGC-803. The experiment in a line: Induction of mitochondrial membrane potential depolarization in human MGC-803 assessed as late apoptotic cells measured at 8 micromol/L for 20 mins by JC-1 staining based flow cytometric analysis (reference value: 94.98%). The format is functional. Particulars: dose 8 µmol/L, at 8 µM.
The test system of assay [13] is MGC-803. The experiment in a line: Induction of cell differentiation in human MGC-803 cells assessed as increase in CD86 level at 8 micromol/L incubated for 48 hrs by flow cytometric analysis (reference value: 60%). The class given is functional. Particulars: dose 8 µmol/L, at 8 µM.
For assay [14], the target named is T1, Lysine-specific histone demethylase 1A. The experiment in a line: Inhibition of LSD1 in human MGC-803 cells assessed as increase in dimethylation of H3K9. The class given is cell-based. Particulars: dose 0-24 µmol/L.
For assay [15], the system named is MGC-803. The experiment in a line: Induction of apoptosis in human MGC-803 cells assessed as early apoptotic cells at 24 micromol/L for 48 hrs by annexinV-FITC/PI staining based flow cytometric analysis (reference value: 2.92%). The format is functional. The note with it: dose 24 µmol/L, at 24 µM.
Assay [16] relates to MGC-803. The experiment in a line: Induction of apoptosis in human MGC-803 cells assessed as decrease in anti-apoptotic c-IAP1 expression at 8 to 24 micromol/L. Particulars: dose 8-24 µmol/L. The format is functional, cell-based.
Assay [17] has as its system MGC-803. The experiment in a line: Induction of apoptosis in human MGC-803 cells assessed as viable cells at 24 micromol/L for 48 hrs by annexinV-FITC/PI staining based flow cytometric analysis (reference value: 95.54%). The note with it: MGC-803, 48 h, dose 24 µmol/L, read-out: Activity. The class given is functional.
A further assay concerns HCT-116. The experiment in a line: Antiproliferative activity against human HCT-116 cells incubated for 48 hrs measured by MTT assay. Particulars: HCT-116, 48 h. The class given is functional, cell-based.
Assay [18] concerns MGC-803. The experiment in a line: Induction of mitochondrial membrane potential depolarization in human MGC-803 assessed as viable cells measured at 24 micromol/L for 20 mins by JC-1 staining based flow cytometric analysis (reference value: 0.40%). Particulars: MGC-803, 20 min, dose 24 µmol/L, read-out: Activity. The class given is functional.
For assay [19], the system named is MGC-803. The experiment in a line: Induction of apoptosis in human MGC-803 cells assessed as necrotic cells at 24 micromol/L for 48 hrs by annexinV-FITC/PI staining based flow cytometric analysis (reference value: 0.22%). The format is functional. Particulars: dose 24 µmol/L, at 24 µM.
Assay [20] has as its system MGC-803. The experiment in a line: Induction of apoptosis in human MGC-803 cells assessed as necrotic cells at 8 micromol/L for 48 hrs by annexinV-FITC/PI staining based flow cytometric analysis (reference value: 0.22%). The class given is functional. The note with it: dose 8 µmol/L, at 8 µM.
In assay [21] the test system is MGC-803. The experiment in a line: Induction of mitochondrial membrane potential depolarization in human MGC-803 assessed as viable cells measured at 8 micromol/L for 20 mins by JC-1 staining based flow cytometric analysis (reference value: 0.40%). The format is functional. The note with it: MGC-803, 20 min, dose 8 µmol/L, read-out: Activity.

For the molecule `O=C(c1cccc(CN[C@@H]2C[C@H]2c2ccc(F)c(F)c2)c1)N1CCN(c2ccc(Cl)c(Cl)c2)CC1`, the IC50 in assay [1] was 25.3 nM; in assay [5], 3820 nM; in assay [6], 1230 nM; in the assay on HCT-116 it was 16300 nM. In addition, the Activity in the assay with MGC-803 [2] is 69.38%; in the assay on MGC-803 [3] it was 64.32%; in the assay on MGC-803 [8], 31.69%; in the assay with MGC-803 [10], 10.43%; in the assay on MGC-803 [12], 93.18%; with MGC-803 [13], 64.13%. For the same molecule, the figures for the Activity with MGC-803 [15], with MGC-803 [19] and with MGC-803 [20] were 37.89%, 0.38% and 0.32%, respectively. Moreover, the inhibition entry in [4] and in [14] was “Dose-Dependent Effect” in each case. Further, the viability at 16 µM with MGC-803 [7] was found to be 1.34%. Further, the result with MGC-803 [9], in the assay on MGC-803 [11] and in the assay with MGC-803 [16] was Active. Also, the figures for the viability at 24 µM in the assay on MGC-803 [17] and in the assay on MGC-803 [18] were 51.8% and 1.28%, respectively. The viability at 8 µM in the assay on MGC-803 [21] was 0.52%.
